What is called pEC50 is −log10 of the EC50, conventionally taken in molar units. A higher pEC50 goes with a small EC50. Broadly, the CC50 is the concentration that lowers cell viability or growth by half. The low end stands for harm at low concentration, the high end for better tolerance by the cells.

SMILES strings stand for the structures. pEC50: −log10 of the molar value.

Nine compounds from patent US7709491B2, “Substituted quinazolines as antiviral agents, especially against cytomegaloviruses” (Bayer Schering Pharma Aktiengesellschaft, priority 2002, dated 2010) can be followed below.

One data set deals with HCMV. Put plainly: Anti-HCMV cytopathogenicity test. Conditions: for pEC50: inhibition of CPE by 50% vs untreated virus control, HCMV-infected NHDF cells, M.O.I. 0.001-0.002, 6 days; for SI HCMV (selectivity index = CC50 (NHDF)/EC50 (HCMV)): ratio CC50 (NHDF)/EC50 (HCMV). It is filed as cell-based, human cytomegalovirus. As for the experimental part: Anti-HCMV (Anti-Human Cytomegalovirus) Cytopathogenicity Tests The test compounds are employed as 50 millimolar (mM) solutions in dimethyl sulfoxide (DMSO). Ganciclovir, foscamet and cidofovir are used as reference compounds. After addition of in each case 2 μl of the 50, 5, 0.5 and 0.05 mM DMSO stock solutions to 98 μl portions of cell culture medium in row […] for duplicate determinations, 1:2 dilutions are carried out with 50 μl portions of medium up to row 11 of the 96-well plate. The wells in rows 1 and 12 each contain 50 μl of medium. 150 μl of a suspension of 1×10^4 cells (human prepuce fibroblasts [NHDF]) are then pipetted into each of the wells (row 1=cell control) and, in rows 2-12, a mixture of HCMV-infected and uninfected NHDF cells (M.O.I.=0.001-0.002), i.e. 1-2 infected cells per 1000 uninfected cells. Row 12 (without substance) serves as virus control. The final test concentrations are 250-0.0005 μM. The plates are incubated at 37° C./5% CO2 for 6 days, i.e. until all the cells are infected in the virus controls (100% cytopathogenic effect [CPE]). The wells are then fixed and stained by adding a mixture of formalin and Giemsa's dye (30 minutes), washed with double-distilled water and dried in a drying oven at 50° C. The plates are then assessed visually using an overhead microscope (plaque multiplier from Technomara). The following data can be acquired from the test plates: EC50 (HCMV)=substance concentration in μM which inhibits the CPE (cytopathic effect) by 50% compared with the untreated virus control; SI (selectivity index)=CC50 (NHDF)/EC50 (HCMV).
On the technique in general: Damage to the host cells serves as the signal in cytopathic effect assays.

Data set [1] can be described thus: Cytotoxicity on NHDF cells in the anti-HCMV cytopathogenicity test. Type of data set: cell-based. Particulars: human, NHDF cells (human prepuce fibroblasts), 6 days incubation, visual assessment of cytotoxic effects vs untreated cell control. As for the experimental part: (§1) Anti-HCMV (Anti-Human Cytomegalovirus) Cytopathogenicity Tests The test compounds are employed as 50 millimolar (mM) solutions in dimethyl sulfoxide (DMSO). Ganciclovir, foscamet and cidofovir are used as reference compounds. After addition of in each case 2 μl of the 50, 5, 0.5 and 0.05 mM DMSO stock solutions to 98 μl portions of cell culture medium in row […] for duplicate determinations, 1:2 dilutions are carried out with 50 μl portions of medium up to row 11 of the 96-well plate. The wells in rows 1 and 12 each contain 50 μl of medium. 150 μl of a suspension of 1×10^4 cells (human prepuce fibroblasts [NHDF]) are then pipetted into each of the wells (row 1=cell control) and, in rows 2-12, a mixture of HCMV-infected and uninfected NHDF cells (M.O.I.=0.001-0.002), i.e. 1-2 infected cells per 1000 uninfected cells. Row 12 (without substance) serves as virus control. The final test concentrations are 250-0.0005 μM. The plates are incubated at 37° C./5% CO2 for 6 days, i.e. until all the cells are infected in the virus controls (100% cytopathogenic effect [CPE]). The wells are then fixed and stained by adding a mixture of formalin and Giemsa's dye (30 minutes), washed with double-distilled water and dried in a drying oven at 50° C. The plates are then assessed visually using an overhead microscope (plaque multiplier from Technomara). The following data can be acquired from the test plates: CC50 (NHDF)=substance concentration in […] at which no visible cytotoxic effects on the cells are evident by comparison with the untreated cell control;

Data set [2] concerns NHDF cells (human prepuce fibroblasts). Described as above. It is filed as cell-based. Conditions: 6 days incubation, visual assessment of cytotoxic effects vs untreated cell control. As for the experimental part: as §1
The mark [3] stands for this setting: Human betaherpesvirus 5, NHDF, 144 h.

In the case of `O=C(O)CC1c2cccc(F)c2N=C(c2ccc(-c3ccc(F)cc3)cc2)N1c1cccc(C(F)(F)F)c1` (racemic) [Example 1], the pEC50 in the data set with HCMV (setting [3]) was 7.00. In the data set on HCMV, the “SI HCMV (selectivity index = CC50 (NHDF)/EC50 (HCMV))” value came to 150. In data set [1], this compound showed a CC50 at 6 days of 15 µM.

For `O=C(O)CC1c2cccc(F)c2N=C(c2ccc(-c3ccc(F)cc3)cc2)N1c1cccc(C(F)(F)F)c1` (racemic) [Example 2, {8-Fluoro-2-(4′-fluoro-1,1′-biphenyl-4-yl)-3-[3-(trifluoromethyl)phenyl]-3,4-dihydro-4-quinazolinyl}acetic acid], in the data set on HCMV, the pEC50 was 7.15 and the “SI HCMV (selectivity index = CC50 (NHDF)/EC50 (HCMV))” value was found to be 171. For the same compound, the cytotoxic concentration (CC50) in data set [2] stood at 12 µM.

Consider `Cc1cccc(-c2ccc(C3=Nc4c(F)cccc4C(CC(=O)O)N3c3cccc(C(F)(F)F)c3)cc2)c1` (racemic) [Example 3, {8-Fluoro-2-(3′-methyl-1,1′-biphenyl-4-yl)-3-[3-(trifluoromethyl)phenyl]-3,4-dihydro-4-quinazolinyl}acetic acid], for which, in the data set with HCMV, the pEC50 is 6.89 and the “SI HCMV (selectivity index = CC50 (NHDF)/EC50 (HCMV))” value turned out to be 115. In data set [1], this compound came in with a CC50 at 6 days of 15 µM.

For `Cc1cccc(-c2ccc(C3=Nc4c(F)cccc4C(CC(=O)O)N3c3cccc(C(F)(F)F)c3)cc2)c1` (racemic) [Example 4, {8-Fluoro-2-(3′-methyl-1,1′-biphenyl-4-yl)-3-[3-(trifluoromethyl)phenyl]-3,4-dihydro-4-quinazolinyl}acetic acid], in the data set on HCMV, the negative-log EC50 (pEC50) is 7.22 and the “SI HCMV (selectivity index = CC50 (NHDF)/EC50 (HCMV))” value stood at 143. The same compound registered a CC50 in data set [2] of 8.6 µM.

Take `COc1ccc(C(F)(F)F)cc1N1C(c2ccc(-c3ccc(F)cc3)cc2)=Nc2c(F)cccc2C1CC(=O)O` (racemic) [Example 32, {2-[4-(4-Fluorophenyl)phenyl]-8-fluoro-3-[2-methoxy-5-(trifluoromethyl)phenyl]-3,4-dihydro-4-quinazolinyl}acetic acid]: the negative-log EC50 (pEC50) with HCMV (setting [3]) is 8.00. Besides, in the data set with HCMV, the “SI HCMV (selectivity index = CC50 (NHDF)/EC50 (HCMV))” value is listed as 1500. Besides, in data set [1], it took 15 µM to reach half-maximal cytotoxicity (CC50 at 6 days).

In the data set with HCMV (setting [3]), `COc1cccc(-c2ccc(C3=Nc4c(F)cccc4C(CC(=O)O)N3c3cc(C(F)(F)F)ccc3OC)cc2)c1` (racemic) [Example 36, {2-[4-(3-Methoxyphenyl)phenyl]-8-fluoro-3-[2-methoxy-5-(trifluoromethyl)phenyl]-3,4-dihydro-4-quinazolinyl}acetic acid] had a pEC50 of 8.00. Moreover, the “SI HCMV (selectivity index = CC50 (NHDF)/EC50 (HCMV))” value in the data set on HCMV stood at 1500. Moreover, the CC50 at 6 days in data set [1] turned out to be 15 µM.

`Cc1cc(-c2ccc(C3=Nc4c(F)cccc4C(CC(=O)O)N3c3cccc(C(F)(F)F)c3)cc2)ccc1F` (stereo not drawn) [Example 5, {8-Fluoro-2-(4′-fluoro-3′-methyl-1,1′-biphenyl-4-yl)-3-[3-(trifluoromethyl)phenyl]-3,4-dihydro-4-quinazolinyl}acetic acid] had a pEC50 in the data set with HCMV (setting [3]) of 6.13. Moreover, the “SI HCMV (selectivity index = CC50 (NHDF)/EC50 (HCMV))” value with HCMV is 16. Besides, in data set [1], the CC50 at 6 days stood at 12 µM.

Turning to `O=C(O)CC1c2cccc(F)c2N=C(c2ccc(-c3cccc(F)c3)cc2)N1c1cccc(C(F)(F)F)c1` (stereo not drawn) [Example 6, {8-Fluoro-2-(3′-fluoro-1,1′-biphenyl-4-yl)-3-[3-(trifluoromethyl)phenyl]-3,4-dihydro-4-quinazolinyl}acetic acid], in the data set on HCMV (setting [3]), the pEC50 is 6.46. The “SI HCMV (selectivity index = CC50 (NHDF)/EC50 (HCMV))” value in the data set on HCMV is 34. Further, the CC50 at 6 days in data set [1] is 12 µM.

Take `O=C(O)CC1c2cccc(F)c2N=C(c2ccc(-c3ccc(F)cc3)cc2F)N1c1cccc(C(F)(F)F)c1` (stereo not drawn) [Example 7, {2-(3,4′-Difluoro-1,1′-biphenyl-4-yl)-8-fluoro-3-[3-(trifluoromethyl)phenyl]-3,4-dihydro-4-quinazolinyl}acetic acid]: in the data set with HCMV (setting [3]), the pEC50 was 5.74. Also, the “SI HCMV (selectivity index = CC50 (NHDF)/EC50 (HCMV))” value in the data set with HCMV turned out to be 17. In data set [1], this compound yielded a 50% cytotoxic concentration (CC50) at 6 days of 31 µM.
